{"source": "patent EP1935986B1", "about": "“Luminogenic and fluorogenic compounds and methods to detect molecules or conditions” (priority 2005, dated 2006)", "key": {"luciferase": {"test_system": "luciferase", "assay": "No-enzyme control: activity of luciferase towards the luciferin derivative (background luminescence)", "settings": "Table 32; microsomes from wild type baculovirus infected insect cells instead of FMO; CHES pH 9.5, 4 hours; duplicates"}, "[1]": {"test_system": "human recombinant flavin-containing monooxygenase 1 (FMO 1)", "assay": "Two-step luminescent FMO assay with luciferin derivative", "type": "biochemical", "settings": "Table 32; CHES pH 9.5, NADPH regeneration, 4 hours room temperature; duplicates"}, "[2]": {"test_system": "human recombinant flavin-containing monooxygenase 3 (FMO 3)", "assay": "Two-step luminescent FMO assay with luciferin derivative", "type": "biochemical", "settings": "Table 32; CHES pH 9.5, NADPH regeneration, 4 hours room temperature; duplicates"}, "CYP2D6": {"target": "T1, CYP2D6 (Homo sapiens, UniProt P10635)", "T1 construct": "purchased Discovery Labware (BD/Gentest); host or cells: insect cell expression system (membrane fractions)", "T1 sequence (P10635 whole entry)": "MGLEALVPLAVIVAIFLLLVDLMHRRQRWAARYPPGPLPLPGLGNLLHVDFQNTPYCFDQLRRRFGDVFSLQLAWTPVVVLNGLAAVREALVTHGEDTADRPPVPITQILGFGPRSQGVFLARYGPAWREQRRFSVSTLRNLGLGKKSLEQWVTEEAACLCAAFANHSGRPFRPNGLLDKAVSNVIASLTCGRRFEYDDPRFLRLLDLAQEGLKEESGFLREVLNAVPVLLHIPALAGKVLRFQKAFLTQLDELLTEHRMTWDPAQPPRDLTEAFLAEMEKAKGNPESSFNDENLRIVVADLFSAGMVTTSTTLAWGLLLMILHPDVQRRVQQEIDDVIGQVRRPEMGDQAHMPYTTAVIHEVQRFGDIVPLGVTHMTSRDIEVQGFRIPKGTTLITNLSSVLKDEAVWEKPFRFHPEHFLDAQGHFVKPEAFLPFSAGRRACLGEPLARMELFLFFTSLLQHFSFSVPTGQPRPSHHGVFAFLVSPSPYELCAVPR", "assay": "Screening inhibitors of CYP2D6 with luciferin-6-methylether ethylene glycol ester (IC50)", "type": "biochemical", "settings": "substrate luciferin-6-methylether ethylene glycol ester"}, "[3]": {"target": "T2, human recombinant monoamine oxidase B (MAO B) (Homo sapiens, UniProt P27338)", "T2 construct": "purchased Sigma Chemical Company M-7441; host or cells: baculovirus infected insect cells (microsomes)", "T2 sequence (P27338 1-520)": "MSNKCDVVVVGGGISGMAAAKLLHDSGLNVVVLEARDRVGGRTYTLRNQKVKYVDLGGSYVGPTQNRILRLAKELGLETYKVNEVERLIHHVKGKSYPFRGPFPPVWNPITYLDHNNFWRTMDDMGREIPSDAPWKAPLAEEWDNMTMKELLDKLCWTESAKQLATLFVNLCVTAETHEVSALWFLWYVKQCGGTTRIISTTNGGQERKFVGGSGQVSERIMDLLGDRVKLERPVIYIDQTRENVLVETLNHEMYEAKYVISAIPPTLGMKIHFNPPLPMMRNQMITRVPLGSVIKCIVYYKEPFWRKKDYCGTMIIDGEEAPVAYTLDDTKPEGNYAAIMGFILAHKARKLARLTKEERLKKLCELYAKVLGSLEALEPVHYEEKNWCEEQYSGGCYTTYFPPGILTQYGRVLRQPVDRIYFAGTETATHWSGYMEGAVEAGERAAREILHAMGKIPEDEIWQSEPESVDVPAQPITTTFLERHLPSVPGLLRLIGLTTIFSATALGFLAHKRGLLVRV", "settings": "published values; cited from earlier work"}, "[4]": {"target": "T3, human recombinant monoamine oxidase A (MAO A) (Homo sapiens, UniProt P21397)", "T3 sequence (P21397 1-527)": "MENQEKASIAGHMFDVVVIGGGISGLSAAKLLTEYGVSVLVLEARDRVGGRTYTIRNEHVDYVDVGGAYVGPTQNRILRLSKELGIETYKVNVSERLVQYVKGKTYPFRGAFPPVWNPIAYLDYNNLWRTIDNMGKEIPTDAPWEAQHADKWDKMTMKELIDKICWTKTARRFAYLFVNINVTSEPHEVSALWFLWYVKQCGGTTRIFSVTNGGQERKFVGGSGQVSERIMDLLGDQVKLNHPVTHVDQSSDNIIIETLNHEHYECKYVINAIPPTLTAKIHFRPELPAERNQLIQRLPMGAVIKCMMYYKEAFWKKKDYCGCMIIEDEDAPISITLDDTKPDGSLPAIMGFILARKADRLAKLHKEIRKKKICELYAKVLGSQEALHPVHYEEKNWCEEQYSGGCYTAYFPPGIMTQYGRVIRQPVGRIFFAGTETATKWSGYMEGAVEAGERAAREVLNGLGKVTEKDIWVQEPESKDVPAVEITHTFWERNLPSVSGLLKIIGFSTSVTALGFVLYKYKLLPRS", "design": "purchased Sigma Chemical Company M-7316; host or cells: baculovirus infected insect cells (microsomes)", "settings": "read-out: published values MAO A; cited from earlier work"}}, "note": "Values joined by “and” are separate entries in the source; they are usually repeats but may differ in a detail not shown here. Equal values may be shown once.", "data": [{"smiles": "CCSCCOc1ccc2nc(C3=N[C@@H](C(=O)O)CS3)sc2c1", "note": "[FMO-2, 6-(2-ethylthioethoxy)-luciferin]", "values": [{"measurement": "RLUs control", "setting": "luciferase", "value": "8.7102 RLUs and 8.5489 RLUs"}, {"measurement": "RLUs FMO 1", "setting": "[1]", "value": "11.778 RLUs and 12.006 RLUs"}, {"measurement": "RLUs FMO 3", "setting": "[2]", "value": "12.194 RLUs and 10.425 RLUs"}]}, {"smiles": "N=C(N)N1CCc2ccccc2C1", "note": "[debrisoquine]", "values": [{"measurement": "IC50", "setting": "CYP2D6", "value": 77, "unit": "µM"}]}, {"smiles": "NCCc1ccccc1", "note": "[phenethylamine]", "values": [{"measurement": "IC50", "setting": "[3]", "value": "2 to 150", "unit": "µM"}, {"measurement": "IC50", "setting": "[4]", "value": "78 to 280", "unit": "µM"}]}]}
